Source: patent US20230096028A1, “BICYCLIC HETEROCYCLYL COMPOUNDS AND USES THEREOF” (Revolution Medicines, Inc., priority 2019, published 2023)
pIC50, pKd: −log10 of the molar value. Read-outs that look alike come from different tables or passages of the source.

Columns and labels:
SOS1 = molecular target: T1, SOS1 (Homo sapiens, UniProt Q07889); assay: Bodipy-FL-GTP Association Assay (SOS1-mediated exchange of KRAS-4B:GDP to KRAS-4B:GTP); type: biochemical; conditions: SOS1-mediated BODIPY FL GTP exchange on KRAS-4B, 22° C.
T1 construct: SOS1 (Cytoskeleton Inc., Cat. CS-GE02); purchased Cytoskeleton Inc. CS-GE02
T1 sequence (Q07889 564-1049 limits assumed): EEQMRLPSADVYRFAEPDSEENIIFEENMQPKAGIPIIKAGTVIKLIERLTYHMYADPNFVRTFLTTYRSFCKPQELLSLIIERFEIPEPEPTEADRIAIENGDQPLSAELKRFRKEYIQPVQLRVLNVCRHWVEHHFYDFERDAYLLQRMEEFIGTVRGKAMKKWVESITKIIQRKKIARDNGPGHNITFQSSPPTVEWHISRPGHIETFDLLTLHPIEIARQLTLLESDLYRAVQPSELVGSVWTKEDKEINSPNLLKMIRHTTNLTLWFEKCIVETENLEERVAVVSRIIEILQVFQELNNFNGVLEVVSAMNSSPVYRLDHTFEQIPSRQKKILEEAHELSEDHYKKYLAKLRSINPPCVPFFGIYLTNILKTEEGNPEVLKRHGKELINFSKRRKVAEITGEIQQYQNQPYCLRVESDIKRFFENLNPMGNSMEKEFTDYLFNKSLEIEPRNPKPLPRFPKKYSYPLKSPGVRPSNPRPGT
Procedure: A low IC50 value for a given compound is indicative of high potency of said compound in inhibiting the guanine nucleotide exchange factor (GEF) activity of SOS1 on KRAS-4B in this assay setting.
Reagents: BODIPY FL GTP (ThermoFisher Scientific, Cat. G12411); KRAS4-B (Cytoskeleton Inc., Cat. CSRS03); SOS1 (Cytoskeleton Inc., Cat. CS-GE02); 2×Assay Buffer: 40 mM Tris-HCl, pH 7.5; 100 mM NaCl; 20 mM MgCl2; 0.1 mg/mL BSA; 0.02% NP-40
Assay Procedure: Test compounds were dissolved in DMSO to create 20 mM master stocks. The stocks were diluted in a 3× dilution series in 100% DMSO to achieve 100× compound stocks. A 1 μl spot of each test compound stock was delivered to two adjacent wells of a 96-well assay plate prior to running the assay. Reaction Mix preparation: The following were mixed in order at room temperature to obtain the “Reaction Mix” (5.75 mL 2× Exchange Buffer; 3.22 mL MilliQ ddH2O; 3 μL 5 mM BODIPY FL GTP; 230 μL 50 μM KRAS-4B; 9.203 mL Total volume. Reaction initiation: 80 μL of Reaction Mix was pipetted into each well of a half-area black 96-well plate (Corning, Cat. 3686) containing either a 1 μL spot of DMSO or a 1 μL spot test compound at the concentrations listed above. 20 μL of 1 μM SOS1 was then added to each well to initiate the reaction. For the no GEF control wells this was replaced with 1× exchange buffer. Kinetic measurement: The reaction was monitored in a SpectraMax M2 Microplate Reader (Molecular Devices) under the following protocol: 5 second rapid circular mixing before first read; 61 readings, 30 seconds apart; Assay temperature: 22° C.; Excitation wavelength: 485 nm; Emission wavelength: 513 nm. Data Analysis: The Vmax values for the SOS1-mediated BODIPY FL GTP exchange curves in the presence of test compounds were normalized to the most dilute test sample columns or DMSO only control wells to give the % Activity for each concentration of test compound. Plots of % Activity vs. the Log 10 of the compound concentration were fit by non-linear regression to a 4-parameter logistic model.

[1] = tested on: PC-9 cells (EGFR Ex19Del); assay: Potency Assay: pERK (SOS1 pERK IC50 Assay, AlphaLISA SureFire Ultra p-ERK1/2); type: cell-based; conditions: Homo sapiens, read-out: SOS1 pERK IC50
How it was run: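 Cellular pERK1/2 by AlphaLISA SureFire Ultra after 1 h compound exposure (37° C., highest concentration 10 μM, 3-fold steps, duplicates) of EGFR Ex19Del PC-9 cells seeded the day before. A 4-parameter fit of signal versus log concentration gives IC50.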

[2] = molecular target: T2, SOS1 catalytic domain (residues 564-1049) (Homo sapiens, UniProt Q07889); assay: Potency Assay: binding affinity to SOS1 using Surface Plasmon Resonance (SPR); design: SOS1 catalytic domain (residues 564-1049) immobilized on a sensor chip; conditions: immobilized SOS1 catalytic domain (residues 564-1049), read-out: SOS1 SPR Equilibrium Kd
T2 sequence (Q07889 564-1049): T1 sequence (Q07889 564-1049 limits assumed)
How it was run: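 Kd was obtained by plotting binding response, taken just before association ended, versus compound concentration on a Biacore 8K. Compounds flowed at 50 μL/min over streptavidin-captured avi-SOS1 catalytic domain (~6000 RU), followed by buffer dissociation; HEPES 0.01 M/NaCl 0.15 M/0.05% P20 buffer, double-referenced.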

[3] = molecular target: T2, SOS1 catalytic domain (residues 564-1049); assay: Mode of Action Assay: inhibition of SOS1 nucleotide exchange activity (SOS1 TR-FRET IC50 Assay)
[4] = PC-9 cells (EGFR Ex19Del), 1 hour incubation, AlphaLISA p-ERK1/2

Row | SMILES | pIC50 (SOS1) | pKd [2] | pIC50 [3] | pIC50 [1, 4] | further results
1 | Cc1nc2c(c(N[C@H](C)c3cc(N)cc(C(F)(F)F)c3)n1)CN(CC1CCOC1)C2 (some centres unmarked) [Example 13] | 5.30 to 6.00 |  |  |  | 
2 | C[C@@H](Nc1nc(Cl)nc2c1CN([C@H]1CC[C@H](O)CC1)C2)c1cc(N)cc(C(F)(F)F)c1 [Example 9, trans-4-(4-{[(1R)-1-[3-amino-5-(trifluoromethyl)phenyl]ethyl]amino}-2-chloro-5H,6H,7H-pyrrolo[3,4-d]pyrimidin-6-yl)cyclohexan-1-ol] | < 5.30 |  |  |  | 
3 | C[C@@H](Nc1nc(Cl)nc2c1CN(C(=O)C1CCOC1)C2)c1cc(N)cc(C(F)(F)F)c1 (stereo partly drawn) [Example 5, N-[(1R)-1-[3-amino-5-(trifluoromethyl)phenyl]ethyl]-2-chloro-6-(oxolane-3-carbonyl)-5H,6H,7H-pyrrolo[3,4-d]pyrimidin-4-amine] | > 6.00 |  |  |  | 
4 | C[C@@H](Nc1nc(Cl)nc2c1CN(C(=O)N1CCOCC1)C2)c1cc(N)cc(C(F)(F)F)c1 [Example 1, N-[(1R)-1-[3-amino-5-(trifluoromethyl)phenyl]ethyl]-2-chloro-6-(morpholine-4-carbonyl)-5H,6H,7H-pyrrolo[3,4-d]pyrimidin-4-amine] | > 6.00 |  |  |  | 
5 | COc1nc2c(c(N[C@H](C)c3cc(N)cc(C(F)(F)F)c3)n1)CN(C(=O)N1CCOCC1)C2 [Example 14] | > 6.00 |  |  |  | 
6 | C[C@@H](Nc1nc(Cl)nc2c1CN([C@H]1CC[C@@H](O)CC1)C2)c1cc(N)cc(C(F)(F)F)c1 [Example 8, cis-4-(4-{[(1R)-1-[3-amino-5-(trifluoromethyl)phenyl]ethyl]amino}-2-chloro-5H,6H,7H-pyrrolo[3,4-d]pyrimidin-6-yl)cyclohexan-1-ol] | < 5.30 |  |  |  | 
7 | Cc1nc2c(c(N[C@H](C)c3cc(N)cc(C(F)(F)F)c3)n1)CN(CC1CCOC1)CC2 (some centres unmarked) [Example 12] | > 6.00 |  |  |  | 
8 | C[C@@H](Nc1nc(O)nc2c1CN(C(=O)N1CCOCC1)C2)c1cc(N)cc(C(F)(F)F)c1 [Example 15] | 5.30 to 6.00 |  |  |  | 
9 | C[C@@H](Nc1nc(Cl)nc2c1CN(C(=O)C1CCN(C)CC1)C2)c1cc(N)cc(C(F)(F)F)c1 [Example 18] | > 6.00 |  |  |  | 
10 | Cc1nc2c(c(N[C@H](C)c3cc(N)cc(C(F)(F)F)c3)n1)CN(C(=O)C1CCN(C)CC1)C2 [Example 21] | > 6.00 |  |  |  | 
11 | C[C@@H](Nc1nc(Cl)nc2c1CCN(CC1CCOC1)CC2)c1cc(N)cc(C(F)(F)F)c1 (some centres unmarked) [Example 11] | 5.30 to 6.00 |  |  |  | 
12 | C[C@@H](Nc1nc(Cl)nc2c1CN(CC1CCOC1)C2)c1cc(N)cc(C(F)(F)F)c1 (some centres unmarked) [Example 20] | > 6.00 |  |  |  | 
13 | C[C@@H](Nc1nc(Cl)nc2c1CN([C@H]1CC[C@@H](C(=O)N(C)C)CC1)C2)c1cc(N)cc(C(F)(F)F)c1 [Example 10, cis-4-(4-{[(1R)-1-[3-amino-5-(trifluoromethyl)phenyl]ethyl]amino}-2-chloro-5H,6H,7H-pyrrolo[3,4-d]pyrimidin-6-yl)-N,N-dimethylcyclohexane-1-carboxamide] | 5.30 to 6.00 |  |  |  | 
14 | C[C@@H](Nc1nc(Cl)nc2c1CN([C@H]1CC[C@H](C(=O)N(C)C)CC1)C2)c1cc(N)cc(C(F)(F)F)c1 [Example 19] | 5.30 to 6.00 |  |  |  | 
15 | Cc1nc2c(c(N[C@H](C)c3cc(N)cc(C(F)(F)F)c3)n1)CN(C(=O)N1CCOCC1)CC2 [Example 2, N-[(1R)-1-[3-amino-5-(trifluoromethyl)phenyl]ethyl]-2-methyl-6-(morpholine-4-carbonyl)-5H,6H,7H,8H-pyrido[4,3-d]pyrimidin-4-amine] | 5.30 to 6.00 |  |  |  | 
16 | C[C@@H](Nc1nc(Cl)nc2c1CN(C(=O)N1CCOCC1)CC2)c1cc(N)cc(C(F)(F)F)c1 [Example 3, N-[(1R)-1-[3-amino-5-(trifluoromethyl)phenyl]ethyl]-2-chloro-6-(morpholine-4-carbonyl)-5H,6H,7H,8H-pyrido[4,3-d]pyrimidin-4-amine] | > 6.00 |  |  |  | 
17 | C[C@@H](Nc1nc(Cl)nc2c1CCN(C(=O)C1CCOC1)CC2)c1cc(N)cc(C(F)(F)F)c1 (stereo partly drawn) [Example 7, N-[(1R)-1-[3-amino-5-(trifluoromethyl)phenyl]ethyl]-2-chloro-7-(oxolane-3-carbonyl)-5H,6H,7H,8H,9H-pyrimido[4,5-d]azepin-4-amine] | 5.30 to 6.00 |  |  |  | 
18 | C[C@@H](Nc1nc(Cl)nc2c1CN(C(=O)N1CCOCC1)C2)c1cccc(C(F)(F)COC2CC2)c1F [Example 469, [2-chloro-4-[[(1R)-1-[3-[2-(cyclopropoxy)-1,1-difluoro-ethyl]-2-fluoro-phenyl]ethyl]amino]-5,7-dihydropyrrolo[3,4-d]pyrimidin-6-yl]-morpholino-methanone] |  | > 6.40 | > 6.00 |  | pIC50 ([1]; PC-9, 1 h): > 6.00
19 | C[C@@H](Nc1nc(Cl)nc2c1CN(C(=O)C1(C#N)CCNCC1)C2)c1cccc(C(F)F)c1F [Example 294] |  | > 6.40 | > 6.00 | > 6.00 | 
20 | C[C@@H](Nc1nc(Cl)nc2c1CN(C(=O)N1CCCC13CCN(C)C3)C2)c1cccc(C(F)F)c1F (some centres unmarked) [Example 413] |  | > 6.40 | > 6.00 | > 6.00 | 
21 | Cc1nc2c(c(N[C@H](C)c3cc(N)cc(C(F)(F)F)c3)n1)CC(C(=O)N1CCOCC1)C2 (stereo partly drawn) [Example 45, [4-[[(1R)-1-[3-amino-5-(trifluoromethyl)phenyl]ethyl]amino]-2-methyl-6,7-dihydro-5H-cyclopenta[d]pyrimidin-6-yl]-morpholino-methanone] |  | < 6.40 | > 6.00 | > 6.00 | 
22 | C[C@@H](Nc1nc(Cl)nc2c1CN(C(=O)C1CCN3CCOCC13)C2)c1cccc(C(F)F)c1F (some centres unmarked) [Example 318] |  | > 6.40 | > 6.00 | < 6.00 | 
23 | C[C@@H](Nc1nc(C(F)F)nc2c1CN(C(=O)N1CCOCC1)C2)c1cc(N)cc(C(F)(F)F)c1 [Example 132, N-[(1R)-1-[3-amino-5-(trifluoromethyl)phenyl]ethyl]-2-(difluoromethyl)-6-(morpholine-4-carbonyl)-5H,6H,7H-pyrrolo[3,4-d]pyrimidin-4-amine] |  | > 6.40 | > 6.00 | > 6.00 | 
24 | COC1CCN(S(=O)(=O)N2CCc3nc(Cl)nc(N[C@H](C)c4cc(N)cc(C(F)(F)F)c4)c3C2)CC1 [Example 179] |  | > 6.40 | > 6.00 | > 6.00 | 
25 | CC(Nc1nc(Cl)nc2c1CN(C(=O)N1CCOCC1)C2)c1cccc(C(F)(F)CO)c1 (centres unmarked) [Example 171, [2-chloro-4-[1-[3-(1,1-difluoro-2-hydroxy-ethyl)phenyl]ethylamino]-5,7-dihydropyrrolo[3,4-d]pyrimidin-6-yl]-morpholino-methanone] |  | > 6.40 | > 6.00 | > 6.00 | 
26 | C[C@@H](Nc1nc(Cl)nc2c1CN(C(=O)N1C[C@H]3COC[C@H]3C1)C2)c1cccc(C(F)F)c1F [Example 410] |  | > 6.40 | > 6.00 | > 6.00 | 
27 | C[C@@H](Nc1nc(Cl)nc2c1CN(C(=O)C1CCNCC1)C2)c1cc(N)cc(C(F)(F)F)c1 [Example 270] |  | > 6.40 | > 6.00 | < 6.00 | 
